According to US8163870B2, “Channel forming peptides” (Kansas State University Research Foundation, priority 2000, dated 2012):
“And” between values parts separate entries of the source, which are not always exact repeats. Equal values may be shown once. Read-outs that look alike come from different tables or passages of the source. Non-standard residues stand in square brackets, D forms with d. No end group written: not given here.

Key:
[1] = target: T1, tetrameric channel (four-helix bundle M2GlyR) (Homo sapiens, UniProt P23415); conditions: cited from earlier work
T1 construct: four identical M2GlyR peptide units were tethered to a 9-amino acid carrier template to form a four-helix bundle protein; 9-amino acid carrier template (tethers four peptide units); host or cells: synthetic peptide construct reconstituted in lipid bilayers

MDCK monolayers = experiment: Transepithelial electrical resistance (RTE) / conductance (gTE) across MDCK monolayers; type: cell-based, canine; conditions: for effect on transepithelial electrical resistance: upon onset of channel activity
Protocol: (§1) Transepithelial ion transport was evaluated in a modified Ussing chamber (Model DCV9, Navicyte, San Diego, Calif.). The Ussing chamber's fluid resistance compensation was completed in Ringer solution (composition (in mM) was 120 NaCl, 25 NaHCO3 3.3 KH2HPO4, 0.8 K2HPO4, 1.2 MgCl2, 1.2 CaCl2). For electrical measurements cell monolayers were bathed in Ringer solution maintained at 37° C. and continuously bubbled with 5% CO2:95% O2. The transepithelial membrane potential (Vte) was clamped to zero and the transepithelial short circuit current (Isc), an indicator of net ion transport, was measured continuously with a voltage clamp apparatus (Model 558C, University of Iowa, Department of Bioengineering, Iowa City, Iowa). Data were digitally acquired at 1 Hz with a Macintosh computer (Apple Computer, Cuppertino, Calif.) using Aqknowledge software (ver. 3.2.6, BIOPAC Systems, Santa Barbara, Calif.) with an MP100A-CE interface.
MDCK cell monolayers (in the presence of 1-EBIO to maximize basolateral membrane K^+ conductance) were exposed on the apical aspect to various concentrations of selected peptides as indicated.
In this experiment, the MDCK monolayers were initially incubated with 60 μM of SEQ ID No. 27. When the residual resistance reached approximately 10% of the starting value, the peptide was removed by aspiration and followed by the addition of pre-warmed Ringer solution. This solution was subsequently removed and replaced an additional five times over the next 2 minutes. In this figure, the solid central line represents the measured current at zero mV and the vertical deflections represent the current recorded during periodic 1 mV bipolar pulses. Pulse amplitude is inversely proportional to RTE in accordance with Ohm's law.
Additional experiments have been conducted to test for complete reversibility of peptide-induced changes in RTE. Monolayers were exposed to peptide (60 μM) in an Ussing chamber for ˜20 minutes to document decreases in RTE, recovered and returned to the cell culture incubator for two to five days with the apical and basolateral media refreshed daily before subsequent assessment of basal RTE and responsiveness to peptide. In the previous example, the return of RTE was only followed for hours. In this example, the restoration of RTE was measured over days to determine the minimum time require for full recovery.
Electrical measurements. Transepithelial ion transport was evaluated in modified Ussing chambers (Model DCV9; Navicyte, San Diego, Calif.). For typical electrical measurements of ion flux, cells were bathed in symmetrical Ringer solution (composition in mM: 120 NaCl, 25 NaHCO3, 3.3 KH2HPO4, 0.8 K2HPO4, 1.2 MgCl2, 1.2 CaCl 2; 290±2 mOsmol). The diffusion chambers were maintained at 37° C. and continuously bubbled with 5% CO2/95% O2 to maintain pH, provide aeration and mix the fluid in the chambers. The transepithelial potential (VTE) was clamped to zero, and ISC measured continuously with a voltage-clamp apparatus (Model 558C, University of Iowa, Department of Bioengineering, Iowa City, Iowa). Data were acquired at 1 Hz with a Macintosh computer (Apple Computer, Cuppertino, Calif.) using Aqknowledge software (ver. 3.2.6; BIOPAC Systems, Santa Barbara, Calif.) with an MP100A-CE interface. gTE was determined by exposing the epithelia to a 5 second 1 mV bipolar pulse at 100 second intervals. The recorded current deflections were used with Ohms law to calculate gTE: […]

MDCK cells = type: cell-based, canine
Description: Cell culture: MDCK cells were a generous gift of Dr. Lawrence Sullivan (Kansas University Medical Center, Kansas City, Kans.). T84 cells were obtained from Dr. Daniel Devor (University of Pittsburgh, Pittsburgh, Pa.). MDCK and T84 cells were maintained with similar culture procedures. The culture medium was a 1:1 mixture of DMEM and Ham's F-12 (Gibco BRL, Grand Island, N.Y.) supplemented with 5% heat inactivated fetal bovine serum (BioWhittaker, Walkersville, Md.), and 1% penicillin and streptomycin (Gibco BRL). Cells were grown in plastic culture flasks in a humidified environment with 5% CO2 at 37° C. and passaged every 5-7 days. For Ussing chamber experiments, cells were plated on 1.13 cm^2 permeable supports (Snapwell™, Costar®, Cambridge, Mass.) at a density of approximately 1×10^6 cells/well and incubated in DMEM/F-12 supplemented with FBS and antibiotics (changed every other day) for 2-3 weeks prior to being mounted in modified Ussing flux chambers.
To form monolayers, the cells were plated onto the upper surface of a permeable membrane that forms the bottom of a plastic well. Two types were used. One was the Transwell™ insert (Costar®, Cambridge, Mass.) supported in a six-well tissue culture plate and the other type was the Snapwell™ (Costar®, Cambridge, Mass.). During incubation, the medium was replaced at 48-72 hour intervals. Confluent monolayers formed within 72 hours. Experiments were performed on the monolayers 6-9 days after the initial plating. Net fluid secretion responses were optimal after six days.
Solutions: Ringer solution was made fresh daily. The final concentration (in mM) was 120 NaCl, 25 NaHCO3 3.3 KH2HPO4, 0.8 K2HPO4, 1.2 MgCl2, 1.2 CaCl2, (290±2 mOsmol). All components of the Ringer solution were from Sigma (St. Louis, Mo.).
as §1, with “Epithelial electrical measurements: Transepithelial” for “Transepithelial”, “(see below).” for “(composition (in mM) was 120 NaCl, 25 NaHCO3 3.3 KH2HPO4, 0.8 K2HPO4, 1.2 MgCl2, 1.2 CaCl2).”
as §1
MDCK cell monolayers (in the presence of 1-EBIO to maximize basolateral membrane K^+ conductance) were exposed on the apical aspect to escelating peptide concentrations. Maximal change in Isc (relative to the Isc prior to peptide exposure) was recorded following each increment in apical peptide concentration. […]

[2] = Chemical cross-linking (BS3) and SDS-PAGE, oligomeric state of peptide in solution; type: physicochemical; conditions: SDS-PAGE
Protocol: Chemical cross-linking: In order to visualize the oligomeric state of the peptide in solution a chemical cross-linking protocol was developed. Calculated amounts of each peptide were weighted out and dissolved in 1 mL of distilled water to make 1 mM stock solutions. A 100 mM stock solution of the chemical crosslinking reagent Bis[Sulfosuccinimidyl]suberate, BS^3, (Pierce Chemical Co., Rockford, Ill.) was prepared in dimethyl sulfoxide (DMSO). […] Sample were allowed to sit at room temperature for 15 minutes. 1-6 μL of 100 mM BS^3 was then added to the previously prepared peptide such that the crosslinking reagent was present in 20-fold excess. The final volume for each reaction was 100 μL. […] Each sample was then vacuum dried. Later dry samples were re-dissolved in 60 μL of distilled water along with 60 μL of a 2×-tricine SDS sample buffer (Novex, San Diego). All samples were then boiled at 100° C. for 5 minutes. 5 μL aliquots of each SDS boiled sample was then loaded into separate lanes of pre-cast, 1.0 mm, 10 well, 10-20% tricine gels (Novex, San Diego). Pre-made Novex tricine-SDS buffer was used in the electrophoresis. The reference well contained 1 μL of MultiMark® multi-colored molecular weight standard (Novex, San Diego). The electrophoresis was carried out at a constant 110 Volts for 90 minutes. […]

[3] = cited from earlier work
[4] = Circular dichroism in 20% TFE; type: physicochemical; conditions: water containing 20% TFE
Protocol: Circular dichroism: Circular dichroism spectra were recorded on a Jasco Model J-720 spectropolarimeter in the range 180-250 nm using quartz cuvettes with a 0.2 mm pathlength. Eight scans recorded at a rate of 20 nm/minute were averaged and corrected for contributions of buffer (10 mM HEPES, pH 7.2). […] The molar ellipticity was calculated using d-10-camphorsulfonic acid (290.5=7783° cm2 dmol 1) as a reference (Chen, G. C., and J. T. Yang. 1977. Two point calibration of spectropolarimeter with d-10-camphorsulfonic acid. Anal. Lett. 10:1195-1207.). The line shapes of the spectra were analyzed using a least-square fitting routine by comparison to polylysine standards representing 100%-helix, -turn, or random coil, respectively.

## Cc1cccc(C)c1NC(=O)C[N+](C)(C)C [QX-222]
[1]
  block of the tetrameric channel: not blocked

## KKKKPARVGLGITTVLTMTTRW (Modified Homo sapiens) [SEQ ID No. 55]
MDCK monolayers; 100 μM
  decrease in RTE: ~70%
MDCK monolayers; 200 μM
  decrease in RTE: ~90%
MDCK monolayers
  effect on transepithelial electrical resistance: dramatic decrease in transepithelial electrical resistance

## all-D amino acid form of SEQ ID NO. 27: all-D amino acid form of SEQ ID NO. 27 ([dK][dK][dK][dK][dA][dA][dR][dV]G[dL]G[dI][dT][dT][dV][dL][dV][dT][dT][dI]G[dL]G[dV][dR][dA][dA])
MDCK monolayers
  concentration triggering conductance increases: 40 µM

## KKKKAARVGLGITTVWVTTIGLGVRAA (KKKKAARVGLGITTVWVTTIGLGVRAA; Modified Homo sapiens) [SEQ ID No. 9]
MDCK cells; peptide at 100 μM
  Activity profile in MDCK cells: 20.0 μA/cm2
MDCK cells; peptide at 100 μM, listed as 9
  Activity profile in MDCK cells: 20.0 at 100 μM μA/cm2
MDCK monolayers
  effect on transepithelial electrical resistance: dramatic decrease in transepithelial electrical resistance
[2]
  aggregation state in solution: remained in monomer form

## PARVGLGITTVLTMTTQSSGSRA (PARVGLGITTVLTMTTQSSGSRA; listed as Homo sapiens) [SEQ ID No. 1]
MDCK cells; peptide at 500 μM
  Activity profile in MDCK cells: 1.5 at 500 μM μA/cm2
[3]; 5-fold KCl concentration gradient
  transference number for anions: 0.85
[3]; symmetric 0.5 M KCl, listed as M2GlyR
  single-channel conductance: 25 pS and 49 pS

## KKKKVTTIGLGVRAPLVTTIGLGVRAA (KKKKVTTIGLGVRAPLVTTIGLGVRAA; Modified Homo sapiens) [SEQ ID No. 5]
MDCK cells; peptide at 500 μM
  Activity profile in MDCK cells: <1.0 at 500 μM μA/cm2
[4]
  secondary structure by CD: beta-sheet

## O=C(O)c1c2ccccc2cc2ccccc12 [9-AC, 9-anthracene carboxylic acid]
[1]
  block of the tetrameric channel: blocked

## KKKKPARVGLGITTVLTMTTQW (Modified Homo sapiens) [SEQ ID No. 54]
MDCK monolayers
  effect on transepithelial electrical resistance: dramatic decrease in transepithelial electrical resistance

## KKKKPARVGLGITTVLVTTIGLGVRAA (KKKKPARVGLGITTVLVTTIGLGVRAA; Modified Homo sapiens) [SEQ ID No. 26]
MDCK cells; MDCK monolayers
  peptide concentration producing maximal effect on Isc (Imax): 100 µM
MDCK cells; peptide at 100 μM
  Activity profile in MDCK cells: 25.7 at 100 μM μA/cm2
MDCK monolayers
  effect on transepithelial electrical resistance: dramatic decrease in transepithelial electrical resistance
[4]
  secondary structure by CD: helical structure

## O=C(O)c1cccnc1Nc1cccc(C(F)(F)F)c1 [NFA, niflumic acid]
[1]
  block of the tetrameric channel: blocked

## KKKKPARVGLGITTVLVTTIGLGVRAP [SEQ ID No. 18, KKKKPARVGL GITTVLVTTI GLGVRAP]
MDCK cells; MDCK monolayers, modified Hill equation fit, read-out: half maximal effect on Isc (EC50 / K1/2)
  EC50: 50 µM
Isolated cells
  effect on isolated cells: not harmful to isolated cells

## KKKKPARVGLGITTVLTMTTQSSGS (KKKKPARVGLGITTVLTMTTQSSGS; Modified Homo sapiens) [SEQ ID No. 33]
MDCK cells; peptide at 500 μM
  Activity profile in MDCK cells: 18.4 at 500 μM μA/cm2

## PARVGLGITTVLVTTIGLGVRAPKKKK [SEQ ID No. 19, PARVGLGITT VLVTTIGLGV RAPKKKK]
Isolated cells
  effect on isolated cells: cytotoxic effects
